Experimental data: patent publication US20210254106A1, “ENGINEERING B LYMPHOCYTES BY UTILIZING ENDOGENOUS ACTIVATION-INDUCED CYTIDINE DEAMINASE” (INSTITUTE FOR RESEARCH IN BIOMEDICINE, priority 2018, published 2021)

System: naïve B cells (IgM+ IgD+ CD27− IgG− IgA−)
Experiment: in vitro acquisition of natural switch region inserts in stimulated naïve B cells with DNA repair inhibitors
Format: cell-based, human
Conditions: Olaparip 4 nM or SCR7 100 nM in culture medium vs DMSO control; B cells stimulated with K562L (CD40L) and IL4; harvested day 10; 50 000 sorted IgG switched B cells; γ-switch region PCR and MinION sequencing
Method: To this end, B cells were isolated by magnetic beads using anti-CD19 beads, followed by FACS-sorting and selection of naïve B cells (IgM^+ IgD^+ CD27^− IgG^− IgA^−). Cells were plated in 48 well plates at concentrations of 50 000 B cells/ml and stimulated with 25 000 irradiated K562L/ml and 8 ng/ml IL4. The DNA repair inhibitor Olaparip (4 nM), SCR7 (100 nM) or DMSO (1:100) as control were added to the culture medium. At day 3 and day 6 the culture medium was replaced which fresh medium supplemented with IL4 and inhibitors. Cells were harvested at day 10 and stained with fluorescently labeled anti-CD19 and anti-IgG antibodies. Switched IgG B cell were sorted by flow cytometry and gDNA was isolation using a commercial kit. Genomic DNA of 50 000 sorted cells were used for γ-switch region PCR amplification and MINION sequencing as described above. Inserts frequencies were analyzed with a bioinformatics pipeline (Pieper K, Tan J, Piccoli L, Foglierini M, Barbieri S, Chen Y, Silacci-Fregni C, Wolf T, Jarrossay D, Anderle M, Abdi A, Ndungu F M, Doumbo O K, Traore B, Tran T M, Jongo S, Zenklusen I, Crompton P D, Daubenberger C, Bull P C, Sallusto F, Lanzavecchia A: Public antibodies to malaria antigens generated by two LAIR1 insertion modalities. Nature. 2017. Aug. 31; 548(7669):597-601).

## O=C(c1cc(Cc2n[nH]c(=O)c3ccccc23)ccc1F)N1CCN(C(=O)C2CC2)CC1 [Olaparib]
  natural switch insert frequencies: elevated

## SCR7
  natural switch insert frequencies: decreased
